Measured values as given in patent EP2087894B1, “FORMULATIONS COMPRISING PICEID ABLE TO PREVENT AND INHIBIT LIPID PEROXIDATION” (Glures S.R.L., priority 2008, dated 2009).
Each block holds one compound with its values, some of them ahead of it.

How the values were obtained:
[1] = Reaction with free radicals and radical initiators before they activate lipid peroxidation; type: biochemical
From the text: (§1) With DHHP, the radical neutralizing activity was instead followed spectrophotometrically by measuring the initial rate (Vo) of the disappearance of its characteristic band at 515 nm. […] It was also required to verify whether the two products examined are able to react with the free radical initiators before the latter activate lipid peroxidation in the membrane.

[2] = Partition coefficients of the stilbenes between liposomes and water; type: physicochemical; conditions: for partitioning between water and lipid phase: liposomes / water
Method: (§2) As the antioxidant efficacy of both products is related to their partitioning between the water and lipid phase and to their position in the membrane bilayer, an investigation was carried out on the interactions of resveratrol and piceid in multilamellar liposomes of saturated L-alpha-phosphatidylcholine (PC) of various chain lengths (dimyristoyl, DMPC; dipalmitoyl, DPPC; distearoyl, DSPC) to determine: a) partition coefficients of the stilbenes between liposomes and water; b) modification of lipid bilayer organization; c) their position in the membrane using differential calorimetric analysis (DSC) and spin labelling (EPR).

[3] = Spin labelling (EPR) with n-SASL to find the position in the membrane; type: physicochemical; conditions: for location of the molecule in the bilayer: EPR spectra of n-SASL (positions 5, 7, 10, 12, 16) in DPPC liposomes; for position of the reactive hydroxyl group in the bilayer: EPR, DPPC liposomes
Method: as §2

[4] = Inhibition of linoleic acid peroxidation, followed by oxygen consumption after thermal initiation by ABIP; type: biochemical; conditions: 37 °C; for decrease in oxygen consumption (inhibition of lipid peroxidation): radical reaction thermally initiated by ABIP, after addition of antioxidant
Method: The effect of the antioxidants on lipid peroxidation was verified by measuring the quantity of oxygen consumed at 37 °C as a consequence of the radical reaction thermally initiated by ABIP.

[5] = Free radical neutralization followed spectrophotometrically (disappearance of the band at 515 nm); type: biochemical; conditions: radical neutralizing activity, spectrophotometric
From the text: as §1

[6] = Differential calorimetric analysis (DSC) of the gel-to-fluid transition of liposomes; type: physicochemical; conditions: DMPC, DPPC, DSPC multilamellar liposomes at increasing stilbene concentrations
Method: as §2

hydrophobicity from partition coefficient measurements ([2]; between liposomes and water): less hydrophobic than resveratrol
Structure (SMILES): OC[C@H]1O[C@@H](Oc2cc(O)cc(/C=C/c3ccc(O)cc3)c2)[C@H](O)[C@@H](O)[C@@H]1O [piceid]
reactivity with the free radicals and radical initiators under examination ([1]; in water, before initiators activate lipid peroxidation in the membrane): react with all the free radicals and radical initiators under examination | effectiveness (quantitative evaluations) ([1]; piceid compared with resveratrol): more effective than resveratrol | partitioning between water and lipid phase [2]: sufficiently lipophilic to partition themselves almost exclusively in the lipid phase | location of the molecule in the bilayer [3]: located in the hydrophobic region of the bilayer although piceid is closer to the hydrophilic region | position of the reactive hydroxyl group in the bilayer [3]: very close to the two double bonds of the polyunsaturated fatty acids (PUFA) | duration of the inhibitory effect on oxygen consumption ([4]; ABIP-initiated, compared with vitamin E and BHT): more prolonged effect over time | decrease in oxygen consumption (inhibition of lipid peroxidation) [4]: steady decrease in oxygen consumption greater than that of vitamin E and BHT | initial rate (Vo) of the disappearance of its characteristic band at 515 nm [5]: comparable to those of BHT (although lower than those of vitamin E) | DSC profiles of the gel-to-fluid state transition [6]: broadened and shifted towards lower temperatures

Structure (SMILES): Oc1ccc(C=Cc2cc(O)cc(O)c2)cc1 [resveratrol]
partitioning between water and lipid phase [2]: sufficiently lipophilic to partition themselves almost exclusively in the lipid phase | location of the molecule in the bilayer [3]: located in the hydrophobic region of the bilayer | position of the reactive hydroxyl group in the bilayer [3]: very close to the two double bonds of the polyunsaturated fatty acids (PUFA) | DSC profiles of the gel-to-fluid state transition [6]: broadened and shifted towards lower temperatures

position of the reactive hydroxyl group in the bilayer [3]: more displaced towards the polar surface
Structure (SMILES): Cc1c(C)c2c(c(C)c1O)CC[C@@](C)(CCC[C@H](C)CCC[C@H](C)CCCC(C)C)O2 [vitamin E, alpha-tocopherol, reference compound]
decrease in oxygen consumption (inhibition of lipid peroxidation) [4]: brief initial period of strong inhibition

position of the reactive hydroxyl group in the bilayer [3]: located more deeply
Structure (SMILES): Cc1cc(C(C)(C)C)c(O)c(C(C)(C)C)c1 [BHT, 2,6-di-tert-butyl-4-methyl-phenol, reference compound]
decrease in oxygen consumption (inhibition of lipid peroxidation) [4]: brief initial period of strong inhibition
